The target of assay [1] is cytochrome b5. The conditions noted are these: read-out: affinity of binding to cytochrome b5; cited from earlier work.
In assay [2] the target is cytochrome b5 (Rattus norvegicus, UniProt P00173). Put plainly: HSQC perturbation mapping: concentration dependence of hexacyclen-induced heteronuclear correlation peak shifts. As to conditions: 1H-15N HSQC peak shifts, hexacyclen 0.5 to 8 mM, pH 7.0, 1 mM phosphate buffer, 40° C; read-out: dissociation constant. The assay is classed as binding. The procedure:
Hexacyclen (1,4,7,10,13,16-hexaazacyclooctadecane)(Richman, J. E.; Atkins, T. J. 1974, J. Am. Chem. Soc., 96, 2268-2269) binds to cytochrome b5 such the HSQC spectra of cytochrome b5-hexacyclen is similar to the HSQC spectra of cytochrome b5-hemoglobin. The concentration dependence of hexacyclen-induced heteronuclear correlation peak shifts indicates a dissociation constant of roughly 2 mM. FIG. 2 illustrates the heteronuclear correlation spectra (HSQC spectra) of a 2 mM solution of cytochrome b5 by itself (black contours) and that of a solution containing 2 mM cytochrome b5 and 4 mM hexacyclen (gray contours). The inset in the upper left hand corner of the figure contains a plot of the hexacyclen dependence of the shifts in the peak to peak separation of aspartate 60 (D60) at concentrations of hexacylen ranging from 0.5 to 8 mM. The inset at the upper right is a model for the interaction of hexacyclen based on the shifts observed in the HSQC perturbation study. Solutions were buffered to a pH of 7.0 with 1 mM phosphate buffer and the spectra were recorded at 40° C. […]
The binding of the R1 and R3 moieties to cytochrome b5 is characterized using HSQC perturbation mapping experiments. […] Solutions were buffered to a pH of 7.0 with 1 mM phosphate buffer and the spectra were recorded at 40° C. […]

A further assay relates to sickle cell patients. As to conditions: nearly 300 sickle cell patients; cited from earlier work.

Sequence of cytochrome b5 (Rattus norvegicus, UniProt P00173) (P00173 whole entry): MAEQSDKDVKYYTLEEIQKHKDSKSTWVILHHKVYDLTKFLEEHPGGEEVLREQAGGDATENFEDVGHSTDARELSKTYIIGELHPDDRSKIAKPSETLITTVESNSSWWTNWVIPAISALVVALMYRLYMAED

`Nc1ncnc2c1ncn2[C@H]1O[C@@H](COP(=O)(O)OP(=O)(O)OP(=O)(O)O)C(O)C1O` (stereo partly drawn) [ATP, Adenosine 5′-triphosphate]: the Kd on cytochrome b5 [1] was 0.18 mM.

On to `C1CNCCNCCNCCNCCNCCN1` [Hexacyclen, 1,4,7,10,13,16-hexaazacyclooctadecane], for which, on cytochrome b5 [2], the Kd was about 2 mM.

As to `NC(=O)NO` [hydroxyurea], the “occurrence of vaso-occlusive crises, reduced to % of that observed” value with sickle cell patients was “roughly 50%”.
